Assay results from patent publication US20180327367A1, “MACROCYCLIC BROAD SPECTRUM ANTIBIOTICS” (priority 2015, published 2018).
Converted amounts (≈) assume the structure as drawn. Read-outs that look alike come from different tables or passages of the source.

Legend:
Format in all cases: cell-based
[1] = test system: Methicillin Resistant Staphylococcus aureus strain USA 300, NRS384; assay: Minimum inhibitory concentration, broth micro-dilution (CLSI), S. aureus; details: Staphylococcus aureus, MRSA / NRS 384 / USA300, 22 h, 35° C., 22 hours
Protocol: (§1) In vitro antimicrobial activity of each compound was determined by measuring minimal inhibitor concentrations (MICs) using the broth micro-dilution technique as approved by the Clinical and Laboratory Standards Institute (CLSI) (Methods for Dilution Antimicrobial Susceptibility Tests for Bacteria that Grow Aerobically; Approved Standard—Eighth Edition. CLSI document M07-A8. Wayne, Pa.: Clinical and Laboratory Standards; 2009). Antibacterial activity was measure against three strains of bacteria: a Methicillin Resistant Staphylococcus aureus strain USA 300, NRS384 (S. aureus); a strain of Escherichia coli MC4100 harboring the IMP4213 (E. coli IMP), which results in increased outer-membrane permeability (B Martin and Silhavy T. Imp/OstA is required for cell envelope biogenesis in Escherichia coli. (2002) Molecular Microbiology, 45(5), 1289-1302), and Escherichia coli ATCC 25922 (E. coli), a clinically relevant Gram-negative strain. Cells were inoculated onto plates of Trypyticase Soy Agar or Luria Agar respectively and grown at 35° C. for 20 hours. Inocula suspensions were prepared by scraping cells into 1 mL of testing media (cation adjusted Mueller Hinton Broth supplemented with 0.002% v/v Tween-80) and diluting to a final OD600 nm of 0.01.
(§2) Test compounds were prepared in DMSO at a concentration of 10 mg/mL. […] In protocol 2, the compound stocks were diluted into testing media at a concentration of 4 μg/mL and serial 2-fold dilutions were made in the same media, in 96-well U bottom microtiter dishes, for a total of 10 compound concentrations. In protocol 3, compound stocks were diluted into testing media at a concentration of 0.5 μg/mL, with serial 2-fold dilutions conducted as described above. […] Inocula suspensions were added to the 2-fold serial dilutions of test compounds to a final density of OD OD600 nm of 0.0005 and incubated at 35° C. for 22 hours.

[2] = test system: Escherichia coli MC4100 harboring the IMP4213 (E. coli IMP); assay: microbe, parasite or virus in culture; details: Escherichia coli, 22 h, read-out: MIC (μg/mL) E. coli IMP, E. coli MC4100 IMP4213, increased outer-membrane permeability; 35° C., 22 hours
Protocol: as §1, §2

[3] = test system: Escherichia coli ATCC 25922; assay: Minimum inhibitory concentration, broth micro-dilution (CLSI), E. coli; details: Escherichia coli, ATCC25922, 22 h, 35° C., 22 hours
Protocol: Cells were inoculated onto plates of Trypyticase Soy Agar or Luria Agar respectively and grown at 35° C. for 20 hours. Inocula suspensions were prepared by scraping cells into 1 mL of testing media (cation adjusted Mueller Hinton Broth supplemented with 0.002% v/v Tween-80) and diluting to a final OD600 nm of 0.01.
as §2

[4] = MRSA USA 300 NRS384, read-out: MIC (μg/mL) S. aureus
[5] = E. coli ATCC 25922, read-out: MIC (μg/mL) E. coli

With `C=CCC(C)(C)COc1ccc(C(=O)N[C@@H](CCN)C(=O)N(C)[C@@H]2C(=O)N[C@@H](C)C(=O)N[C@H](C(=O)NCC#N)Cc3ccc(OCCN)c(c3)-c3cc2ccc3OCCN)c(C)c1` [Compound 285] the MIC [1, 4] was 0.063 µg/mL (≈ 0.0726 µM), the MIC [2] was 0.0078 µg/mL (≈ 0.00899 µM) and the MIC [3, 5] was 0.75 µg/mL (≈ 0.864 µM).
For `Cc1cc(OCC2C[C@H]3CC[C@@H]2C3)ccc1C(=O)N[C@@H](CCN)C(=O)N(C)[C@@H]1C(=O)N[C@@H](C)C(=O)N[C@H](C(=O)NCC#N)Cc2ccc(OCCN)c(c2)-c2cc1ccc2OCCN` (stereo partly drawn) [Compound 287], the MIC [1, 4] was 0.094 µg/mL (≈ 0.107 µM), the MIC [2] was 0.0078 µg/mL (≈ 0.00886 µM) and the MIC [3, 5] was 0.38 µg/mL (≈ 0.432 µM).
For `CCCCCCCOc1ccc(C(=O)N[C@@H](CCN)C(=O)N(C)[C@@H]2C(=O)N[C@@H](C)C(=O)N[C@H](C(=O)NCC#N)Cc3ccc(OCCN)c(c3)-c3cc2ccc3OCCN)c(C)c1C` [Compound 294], the MIC [1, 4] was 0.063 µg/mL (≈ 0.0713 µM), the MIC [2] was 0.0078 µg/mL (≈ 0.00882 µM) and the MIC [3, 5] was 0.25 µg/mL (≈ 0.283 µM).
For `C[C@@H]1NC(=O)[C@@H](N(C)C(=O)[C@H](CCN)NC(=O)c2ccc(OCC(C)(C)C)c3ccccc23)c2ccc(OCCN)c(c2)-c2cc(ccc2OCCN)C[C@@H](C(=O)NCC#N)NC1=O` [Compound 296], the MIC [1, 4] was 0.047 µg/mL (≈ 0.0535 µM), the MIC [2] was 0.031 µg/mL (≈ 0.0353 µM) and the MIC [3, 5] was 2 µg/mL (≈ 2.28 µM).
For `CCCCCCOCc1ccc(C(=O)N[C@@H](CCN)C(=O)N(C)[C@@H]2C(=O)N[C@@H](C)C(=O)N[C@H](C(=O)NCC#N)Cc3ccc(OCCN)c(c3)-c3cc2ccc3OCCN)c(Cl)c1` [Compound 297], the MIC [1, 4] was 0.063 µg/mL (≈ 0.0707 µM), the MIC [2] was 0.0078 µg/mL (≈ 0.00876 µM) and the MIC [3, 5] was 1 µg/mL (≈ 1.12 µM).
`CCCCCCCn1cc(C(=O)N[C@@H](CCN)C(=O)N(C)[C@@H]2C(=O)N[C@@H](C)C(=O)N[C@H](C(=O)NCC#N)Cc3ccc(OCCN)c(c3)-c3cc2ccc3OCCN)c(C)nc1=O` [Compound 301] gave an MIC [1, 4] of 4 µg/mL (≈ 4.59 µM), an MIC [2] of 4 µg/mL (≈ 4.59 µM) and an MIC [3, 5] greater than 64 µg/mL.
For `Cc1nc(C#CC2CCCCC2)ncc1C(=O)N[C@@H](CCN)C(=O)N(C)[C@@H]1C(=O)N[C@@H](C)C(=O)N[C@H](C(=O)NCC#N)Cc2ccc(OCCN)c(c2)-c2cc1ccc2OCCN` [Compound 312], the MIC [1, 4] was 0.25 µg/mL (≈ 0.289 µM), the MIC [2] was 0.023 µg/mL (≈ 0.0266 µM) and the MIC [3, 5] was 0.5 µg/mL (≈ 0.579 µM).
Work on `CCCCCCCc1ccc(C(=O)N[C@@H](CCN)C(=O)N(C)[C@@H]2C(=O)N[C@@H](C)C(=O)N[C@H](C(=O)NCC#N)Cc3ccc(O)c(c3)-c3cc2ccc3OCCN)c(C)c1` [Compound 314] yielded an MIC [1, 4] of 0.078 µg/mL (≈ 0.0962 µM), an MIC [2] of 0.023 µg/mL (≈ 0.0284 µM) and an MIC [3, 5] of 0.44 µg/mL (≈ 0.543 µM).
`CCCCCCCc1ccc(C(=O)N[C@@H](CCN)C(=O)N(C)[C@@H]2C(=O)N[C@@H](C)C(=O)N[C@H](C(=O)NCC#N)Cc3ccc(OCCN)c(c3)-c3cc2ccc3O)c(C)c1` [Compound 315] was tested, and the MIC [1, 4] was 0.078 µg/mL (≈ 0.0962 µM), the MIC [2] was 0.014 µg/mL (≈ 0.0173 µM) and the MIC [3, 5] was 0.38 µg/mL (≈ 0.469 µM).
For `CCCCCCCCCCCCCC(=O)N[C@@H](CCN)C(=O)N(C)[C@@H]1C(=O)N[C@@H](C)C(=O)N[C@H](C(=O)NCC#N)Cc2ccc(OCC(=O)O)c(c2)-c2cc1ccc2OCCN` [Compound 327], the MIC [1, 4] was 0.25 µg/mL (≈ 0.29 µM), the MIC [2] was 0.0078 µg/mL (≈ 0.00904 µM) and the MIC [3, 5] was 2 µg/mL (≈ 2.32 µM).
With `CCCCCCCCCCCCCC(=O)N[C@@H](CCN)C(=O)N(C)[C@@H]1C(=O)N[C@@H](C)C(=O)N[C@H](C(=O)NCC#N)Cc2ccc(OCC(=O)OC(C)(C)C)c(c2)-c2cc1ccc2OCCN` [Compound 328] the MIC [1, 4] was 1 µg/mL (≈ 1.09 µM), the MIC [2] was 0.25 µg/mL (≈ 0.272 µM) and the MIC [3, 5] was 4 µg/mL (≈ 4.35 µM).
Compound `CCCCCCc1ccc(S(=O)(=O)N[C@@H](CCN)C(=O)N(C)[C@@H]2C(=O)N[C@@H](C)C(=O)N[C@H](C(=O)NCC#N)Cc3ccc(OCCN)c(c3)-c3cc2ccc3OCCN)c(C)c1` [Compound 347] has an MIC ([1]; read-out: MIC (μg/mL) S. aureus, MRSA USA 300 NRS384) of 0.063 µg/mL (≈ 0.0719 µM), an MIC [2] of 0.063 µg/mL (≈ 0.0719 µM) and an MIC ([3]; read-out: MIC (μg/mL) E. coli, E. coli ATCC 25922) of 8 µg/mL (≈ 9.13 µM).
`CCCCCCCCCCNCCS(=O)(=O)N[C@@H](CCCN)C(=O)N(C)[C@@H]1C(=O)N[C@@H](C)C(=O)N[C@H](C(=O)NCC#N)Cc2ccc(OCCN)c(c2)-c2cc1ccc2OCCN` [Compound 349] was tested, and the MIC [1, 4] was 0.016 µg/mL (≈ 0.0178 µM), the MIC [2] was 0.13 µg/mL (≈ 0.145 µM) and the MIC [3, 5] was 8 µg/mL (≈ 8.9 µM).
`CCCCCCCCCCNCCS(=O)(=O)N(C)[C@@H]1C(=O)N[C@@H](C)C(=O)N[C@H](C(=O)NCC#N)Cc2ccc(OCCN)c(c2)-c2cc1ccc2OCCN` [Compound 351] was tested, and the MIC [1, 4] was 1 µg/mL (≈ 1.27 µM), the MIC [2] was greater than 4 µg/mL and the MIC [3, 5] was greater than 64 µg/mL.
